From PubChem BioAssay AID248 (DTP/NCI, 2004)
“And” between values parts separate entries of the source, which are not always exact repeats. Equal values may be shown once. Toxic doses and inconclusive results are not listed.

System: L1210 leukemia ip in BDF1 mice, survival T/C
Assay: NCI In Vivo Anticancer Drug Screen. Data for tumor model L1210 Leukemia (intraperitoneal) in B6D2F1 (BDF1) mice
Conditions: endpoint: mean survival time, higher = longer survival
Procedure, shortened: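 Read-out is survival time, reported as the treated-group measurement over the vehicle-control measurement.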

[1] = dose: 100.0 mg/kg/injection, schedule: Q01DX001 (ip), vehicle: carboxymethylcellulose (CMC)
[2] = dose: 200.0 mg/kg/injection, schedule: Q01DX001 (ip), vehicle: carboxymethylcellulose (CMC)
[3] = dose: 400.0 mg/kg/injection, schedule: Q01DX001 (ip), vehicle: carboxymethylcellulose (CMC)
[4] = dose: 100.0 mg/kg/injection, schedule: Q04DX002 (ip), vehicle: Klucel (hydroxypropylcellulose) (HPC)
[5] = dose: 200.0 mg/kg/injection, schedule: Q04DX002 (ip), vehicle: Klucel (hydroxypropylcellulose) (HPC)
[6] = dose: 100.0 mg/kg/injection, schedule: Q04DX003 (ip), vehicle: saline
[7] = dose: 100.0 mg/kg/injection, schedule: Q01DX009 (ip), vehicle: Klucel (hydroxypropylcellulose) (HPC)
[8] = dose: 100.0 mg/kg/injection, schedule: Q04DX003 (ip), vehicle: Klucel (hydroxypropylcellulose) (HPC)
[9] = dose: 200.0 mg/kg/injection, schedule: Q01DX009 (ip), vehicle: Klucel (hydroxypropylcellulose) (HPC)
[10] = dose: 200.0 mg/kg/injection, schedule: Q04DX003 (ip), vehicle: Klucel (hydroxypropylcellulose) (HPC)
[11] = dose: 400.0 mg/kg/injection, schedule: Q01DX009 (ip), vehicle: Klucel (hydroxypropylcellulose) (HPC)
[12] = dose: 400.0 mg/kg/injection, schedule: Q04DX003 (ip), vehicle: Klucel (hydroxypropylcellulose) (HPC)
[13] = dose: 200.0 mg/kg/injection, schedule: Q04DX003 (ip), vehicle: saline
[14] = dose: 400.0 mg/kg/injection, schedule: Q04DX003 (ip), vehicle: saline
[15] = dose: 50.0 mg/kg/injection, schedule: Q04DX003 (ip), vehicle: saline

For CCc1nc(N)nc(N)c1-c1ccc(Cl)cc1.[O]=[Zn], the T/C (dose: 15.0 mg/kg/injection, schedule: Q01DX015 (ip), vehicle: carboxymethylcellulose (CMC)) was 96 % of control, the T/C (dose: 30.0 mg/kg/injection, schedule: Q01DX015 (ip), vehicle: carboxymethylcellulose (CMC)) was 96 % of control and the T/C (dose: 60.0 mg/kg/injection, schedule: Q01DX015 (ip), vehicle: carboxymethylcellulose (CMC)) was 123 % of control. The T/C [1] was 92 % of control, the T/C (dose: 120.0 mg/kg/injection, schedule: Q01DX015 (ip), vehicle: carboxymethylcellulose (CMC)) was 124 % of control and the T/C [2] was 93 % of control.
CCCCC(=O)N/N=C\c1cc(Cl)ccc1[N+](=O)[O-] was tested, and the T/C [1] was 96 % of control, the T/C [2] was 91 % of control and the T/C [3] was 96 % of control.
In the case of CCCCC1C(=O)N(c2ccccc2)N(c2ccccc2)C1=O, the T/C (dose: 17.0 mg/kg/injection, schedule: Q01DX Z (ip), vehicle: water) was 97 % of control, the T/C (dose: 40.0 mg/kg/injection, schedule: Q01DX Z (ip), vehicle: water) was 100 % of control and the T/C (dose: 60.0 mg/kg/injection, schedule: Q01DX Z (ip), vehicle: water) was 103 % of control. The T/C (dose: 90.0 mg/kg/injection, schedule: Q01DX Z (ip), vehicle: water) was 100 % of control and the T/C (dose: 135.0 mg/kg/injection, schedule: Q01DX Z (ip), vehicle: water) was 114 % of control.
In the case of CCC(=O)C(CC(C)[N+](C)(C)C)(c1ccccc1)c1ccccc1 (stereo not given), the T/C [1] was 92 % of control.
For O=S(=O)(c1ccccc1)C1C2CCC(O2)C1S(=O)(=O)c1ccccc1 (stereo not given), the T/C [4] was 103 % of control, the T/C [5] was 92 % of control and the T/C (dose: 400.0 mg/kg/injection, schedule: Q04DX002 (ip), vehicle: Klucel (hydroxypropylcellulose) (HPC)) was 89 % of control.
CN(C)C(=O)c1cc[n+](Cc2ccc(Cl)c(Cl)c2)cc1 was tested, and the T/C [6] was 105 % of control.
For CCOC(=O)C(C)(Br)C(Br)c1ccc([N+](=O)[O-])cc1 (stereo not given), the T/C [7] was 96 % of control, the T/C [8] was 101 % of control and the T/C [9] was 93 % of control. For the same compound, the T/C [10] was 101 % of control, the T/C [11] was 98 % of control and the T/C [12] was 108 % of control.
With NNC(=O)CNc1ccc(F)cc1Br the T/C [4] was 101 % of control and the T/C [5] was 101 % of control.
With CC(C)C(C(=O)O)(c1ccccc1)c1ccccc1 the T/C [6] was 101 % of control, the T/C [13] was 103 % of control and the T/C [14] was 97 % of control.
For O=[N+]([O-])c1ccc(OCc2ccc(S(=O)(=O)F)c(Cl)c2)c(Cl)c1, the T/C (dose: 100.0 mg/kg/injection, schedule: Q01DX009 (ip), vehicle: other) was 101 % of control, the T/C [6] was 101 % of control and the T/C (dose: 200.0 mg/kg/injection, schedule: Q01DX009 (ip), vehicle: other) was 108 % of control. The T/C [13] was 104 % of control, the T/C (dose: 400.0 mg/kg/injection, schedule: Q01DX009 (ip), vehicle: other) was 94 % of control and the T/C [14] was 88 % of control.
With Nc1nc(N)c(CCCc2ccccc2)c(N)n1 the T/C [4] was 87 % of control.
With C[N+]1(C)CC2CCCCC1C2O (stereo not given) the T/C (dose: 75.0 mg/kg/injection, schedule: Q01DX001 (ip), vehicle: saline) was 108 % of control and the T/C (dose: 150.0 mg/kg/injection, schedule: Q01DX001 (ip), vehicle: saline) was 104 % of control.
With O=C(NCSC1=NCCS1)NCSC1=NCCS1 the T/C [7] was 107 % of control, the T/C [6] was 97 % of control and the T/C [9] was 92 % of control. The T/C [13] was 114 % of control, the T/C [11] was 96 % of control and the T/C [14] was 97 % of control.
For CN(C)c1nc(C(=O)O)cc(=O)[nH]1, the T/C (dose: 100.0 mg/kg/injection, schedule: Q01DX Z (ip), vehicle: saline) was 101 % of control and the T/C (dose: 200.0 mg/kg/injection, schedule: Q01DX Z (ip), vehicle: saline) was 100 % of control.
In the case of CCOc1ccccc1/C=N\NC(=O)c1ccco1, the T/C [1] was 106 % of control, the T/C [2] was 95 % of control and the T/C [3] was 104 % of control.
With COc1ccc(CC(=O)NCCc2ccccc2)cc1 the T/C [1] was 96 % of control, the T/C [2] was 98 % of control and the T/C [3] was 96 % of control.
In the case of C[n+]1ccccc1Cl, the T/C (dose: 50.0 mg/kg/injection, schedule: Q04DX002 (ip), vehicle: saline) was 115 % of control, the T/C (dose: 100.0 mg/kg/injection, schedule: Q04DX002 (ip), vehicle: saline) was 108 % of control and the T/C (dose: 200.0 mg/kg/injection, schedule: Q04DX002 (ip), vehicle: saline) was 110 % of control.
With NC(=S)N/N=C/c1ccco1 the T/C (dose: 25.0 mg/kg/injection, schedule: Q04DX003 (ip), vehicle: saline) was 105 % of control, the T/C [15] was 109 % of control and the T/C (dose: 100.0 mg/kg/injection, schedule: Q01DX001 (ip), vehicle: saline) was 101 % of control. For the same compound, the T/C [8] was 93 % of control, the T/C [6] was 94 % of control and 100 % of control and the T/C (dose: 200.0 mg/kg/injection, schedule: Q01DX001 (ip), vehicle: saline) was 104 % of control. For the same compound, the T/C [10] was 96 % of control and the T/C [12] was 103 % of control.
With N#C/C(=C\c1ccncc1)c1cccc2ccccc12 the T/C [8] was 114 % of control, the T/C [10] was 96 % of control and the T/C [12] was 97 % of control.
With Nc1cc([N+](=O)[O-])ccc1Cl the T/C [7] was 99 % of control, the T/C [8] was 102 % of control and the T/C [9] was 101 % of control. For the same compound, the T/C [10] was 102 % of control and the T/C [12] was 103 % of control.
COc1ccc2nc(C)oc2c1 was tested, and the T/C (dose: 100.0 mg/kg/injection, schedule: Q04DX003 (ip), vehicle: acetone) was 97 % of control, the T/C (dose: 200.0 mg/kg/injection, schedule: Q04DX003 (ip), vehicle: acetone) was 95 % of control and the T/C (dose: 400.0 mg/kg/injection, schedule: Q04DX003 (ip), vehicle: acetone) was 97 % of control.
For CCOC(=O)OC1CC/C(=N\NC(N)=S)C1 (stereo not given), the T/C (dose: 15.0 mg/kg/injection, schedule: Q01DX Z (ip), vehicle: methylcellulose (MC)) was 104 % of control, the T/C (dose: 30.0 mg/kg/injection, schedule: Q01DX Z (ip), vehicle: methylcellulose (MC)) was 101 % of control and the T/C (dose: 60.0 mg/kg/injection, schedule: Q01DX Z (ip), vehicle: methylcellulose (MC)) was 108 % of control. The T/C (dose: 120.0 mg/kg/injection, schedule: Q01DX Z (ip), vehicle: methylcellulose (MC)) was 98 % of control.
For COc1cccc2c1C(=O)c1c(O)c3c(c(O)c1C2=O)C[C@@](O)(/C(C)=N\NC(N)=O)C[C@@H]3OC1CC(N)C(O)C(C)O1 (stereo not given in full), the T/C (dose: 1.5 mg/kg/injection, schedule: Q01DX009 (ip), vehicle: saline) was 107 % of control, the T/C (dose: 2.0 mg/kg/injection, schedule: Q04DX003 (ip), vehicle: water) was 110 % of control and the T/C (dose: 3.0 mg/kg/injection, schedule: Q01DX009 (ip), vehicle: saline) was 112 % of control. For the same compound, the T/C (dose: 3.12 mg/kg/injection, schedule: Q01DX009 (ip), vehicle: saline) was 113 % of control, the T/C (dose: 4.0 mg/kg/injection, schedule: Q04DX003 (ip), vehicle: water) was 120 % of control and the T/C (dose: 6.0 mg/kg/injection, schedule: Q01DX009 (ip), vehicle: saline) was 117 % of control. For the same compound, the T/C (dose: 6.25 mg/kg/injection, schedule: Q01DX009 (ip), vehicle: saline) was 150 % of control, the T/C (dose: 8.0 mg/kg/injection, schedule: Q04DX003 (ip), vehicle: saline) was 111 % of control and the T/C (dose: 12.5 mg/kg/injection, schedule: Q01DX009 (ip), vehicle: saline) was 155 % of control. The T/C (dose: 12.5 mg/kg/injection, schedule: Q04DX003 (ip), vehicle: saline) was 124 % of control, the T/C (dose: 24.0 mg/kg/injection, schedule: Q01DX009 (ip), vehicle: saline) was 124 % of control and the T/C [15] was 157 % of control. For the same compound, the T/C (dose: 125.0 micrograms/kg/injection, schedule: Q04DX003 (ip), vehicle: water) was 105 % of control, the T/C (dose: 250.0 micrograms/kg/injection, schedule: Q04DX003 (ip), vehicle: water) was 107 % of control and the T/C (dose: 500.0 micrograms/kg/injection, schedule: Q04DX003 (ip), vehicle: water) was 108 % of control. The T/C (dose: 1000.0 micrograms/kg/injection, schedule: Q04DX003 (ip), vehicle: water) was 107 % of control and the T/C (dose: 2000.0 micrograms/kg/injection, schedule: Q04DX003 (ip), vehicle: water) was 110 % of control.
With COc1cc2c(cc1OC)C1CCc3cc(OC)c(OC)cc3C1N=C2 (stereo not given) the T/C (dose: 80.0 mg/kg/injection, schedule: Q01DX009 (ip), vehicle: saline) was 102 % of control, the T/C (dose: 120.0 mg/kg/injection, schedule: Q01DX009 (ip), vehicle: saline) was 93 % of control and the T/C (dose: 240.0 mg/kg/injection, schedule: Q01DX009 (ip), vehicle: saline) was 93 % of control. For the same compound, the T/C (dose: 360.0 mg/kg/injection, schedule: Q01DX009 (ip), vehicle: saline) was 93 % of control.
